From US20140023602A1, “EXTERNAL PREPARATION FOR SKIN CONTAINING A PHOSPHORYLATED SACCHARIDE” (EZAKI GLICO CO., LTD., priority 2005, published 2014) come the findings set out here.

The test system of data set [1] is Normal human skin fibroblast cells. Description: Collagen production by human skin fibroblast, Sircol collagen assay. Format: cell-based. Here is the method:
Normal human skin fibroblast cells were adjusted with 10% D-MEM (manufactured by Invitrogen) to a density of 2.5×10^4 cells per well, and preincubated on the 96-well plate for 24 hours. After removal of the medium, phosphorylated saccharide calcium salt adjusted to a concentration of 1% with 4% D-MEM was added to each well as a test sample, and then the mixture was cultured at 37° C. under 5% CO2 for 72 hours. After the completion of the culture, the amount of collagen in the medium was measured. The amount of collagen was measured by using a Sircol collagen assay Kit (manufactured by Biocolor Ltd.).
(§1) Normal human skin fibroblast cells were adjusted with 10% D-MEM (manufactured by Invitrogen) to a density of 2.5×10^4 cells per well, and preincubated on the 96-well plate for 24 hours. After removal of the medium, phosphorylated saccharide calcium salt adjusted to a concentration of 1% with 4% D-MEM and 0.0044% ascorbic acid as a test sample, or 0.0044% ascorbic acid as a control was added to each well, and then the mixture was cultured at 37° C. under 5% CO2 for 72 hours. After the completion of the culture, the amounts of collagen in the medium and on the cell surface were measured. The amount of collagen was measured by using a Sircol collagen assay Kit (manufactured by Biocolor Ltd.). The collagen on cell surface was measured after pepsin treatment.
Normal human skin fibroblast cells were adjusted with 10% D-MEM (manufactured by Invitrogen) to a density of 2.5×10^4 cells per well, and preincubated on the 96-well plate for 24 hours. After removal of the medium, phosphorylated saccharide potassium salt adjusted to a concentration of 1% with 4% D-MEM was added to each well as a test sample, and then cultured at 37° C. under 5% CO2 for 72 hours. After the completion of the culture, the amount of collagen in the medium was measured. The amount of collagen was measured by using a Sircol collagen assay Kit (manufactured by Biocolor Ltd.).
as §1, with “phosphorylated saccharide potassium salt adjusted” for “phosphorylated saccharide calcium salt adjusted”, “acid as control was” for “acid as a control was”, “medium and the cell” for “medium and on the cell”

For data set [2] the following is noted: buffer; for Water retention ratio: Remaining ratio after 1 minute (%): 1 min.
Protocol: 0.1% to 1% Aqueous phosphorylated saccharide mineral salt solutions were prepared. Ten μl/paper of the aqueous phosphorylated saccharide mineral salt solution was impregnated into a paper disc (8 mm) [manufactured by Advantech], and the water-retention effect was evaluated by measuring the remaining water over time for 10 minutes under a constant condition. For comparison, 0.1% solution of hyaluronic acid or 1% solution of glycerol, which are known as water retention component, were used. Distilled water was used as a control.
Where [3] appears, read: inorganic chloride as comparison, concentration not given.

Several values for one entry are separate records, joined by “and”; a condition that tells them apart may be missing. Equal values may be shown once.

Turning to `O=C1O[C@H]([C@@H](O)CO)C(O)=C1O` [ascorbic acid], the “amount of collagen in the medium” value in data set [1] (0.0044% ascorbic acid alone, 72 hours) is 55.1 µg/mL and 44.1 µg/mL and 50.1 µg/mL and 52.1 µg/mL. Besides, the “amount of collagen on the cell surface” value in data set [1] (0.0044% ascorbic acid alone, 72 hours, after pepsin treatment) is 23.1 µg/mL and 23.0 µg/mL and 21.3 µg/mL. In addition, the “increase of amount of collagen in the medium compared to control well” value in data set [1] (0.0044% ascorbic acid in 4% FBS-DMEM, 72 hours) amounted to 1.4 µg.
As to `[Cl-].[Cl-].[Mg+2]` [magnesium chloride], the “induction of collagen production (in words)” value in data set [1] (setting [3]) was “no significant collagen production induction was observed”.
Regarding hyaluronic acid, in data set [2], the “Water retention ratio: Remaining ratio after 1 minute (%)” value turned out to be 98.84% and the “Water retention ratio: Remaining ratio after 10 minutes (%)” value stood at 83.73%.
For the compound `OCC(O)CO` [glycerol], in data set [2], the “Water retention ratio: Remaining ratio after 1 minute (%)” value was 98.84% and the “Water retention ratio: Remaining ratio after 10 minutes (%)” value was found to be 88.23%.
On to `[Cl-].[K+]` [potassium chloride], for which, in data set [1] (inorganic chloride as comparison, concentration not given, 72 hours), the “induction of the collagen production (amount of collagen)” value worked out at 2.2 µg/mL.
Turning to `[Ca+2].[Cl-].[Cl-]` [calcium chloride], in data set [1] (setting [3]), the “induction of collagen production (in words)” value is listed as “no induction of collagen production was observed”.
